Reference: the supplement of paper PMC10883282
± gives the standard deviation of the averaged measurements.

System: SW982
Assay: relative viability vs DMSO control (72 h) (fraction); higher = more viable cells
Outline: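 Relative viability is percent growth read by ATPLite and averaged over up to triplicate wells. Sarcoma cells were seeded in 384-well plates to reach 80–90% confluence and given 2.5 µl of serially diluted compound after 24 h, from source plates of 10 mM to 0.0002 mM. Incubation lasted 72 h at 37 °C, 5% CO2, with 0.1% DMSO vehicle and a 5 µM positive control, and the data were rescaled so 1 equals full and 0 equals none.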

Compound | relative viability (0.00017 µM) | relative viability (0.00051 µM) | relative viability (0.00152 µM) | relative viability (0.00457 µM) | relative viability (0.01372 µM) | relative viability (0.04115 µM) | relative viability (0.1235 µM) | relative viability (0.3704 µM) | relative viability (1.111 µM) | relative viability (3.333 µM) | relative viability (10 µM)
COc1cc2/c(=N/c3ccc(Br)cc3F)nc[nH]c2cc1OCC1CCN(C)CC1 [Vandetanib] | 0.997 ± 0.044 | 1 ± 0.035 | 0.977 ± 0.021 | 1.01 ± 0.033 | 1.01 ± 0.078 | 1.03 ± 0.041 | 0.983 ± 0.075 | 0.873 ± 0.077 | 0.699 ± 0.084 | 0.291 ± 0.032 | 0.0207 ± 0.0067
CCc1cc2c(cc1N1CCC(N3CCOCC3)CC1)C(C)(C)c1[nH]c3cc(C#N)ccc3c1C2=O [Alectinib] | 1.05 ± 0.043 | 1.06 ± 0.035 | 1.058 ± 0.0041 | 1.06 ± 0.026 | 1.04 ± 0.022 | 1.05 ± 0.017 | 1.032 ± 0.0038 | 1.05 ± 0.022 | 1.07 ± 0.019 | 1.06 ± 0.038 | 1.06 ± 0.046
Cc1nc(-c2cn3c(n2)-c2ccc(-c4cnn(C(C)(C)C(N)=O)c4)cc2OCC3)n(C(C)C)n1 [Taselisib] | 1.03 ± 0.045 | 1.04 ± 0.023 | 1.02 ± 0.043 | 1.02 ± 0.02 | 1.02 ± 0.034 | 0.968 ± 0.02 | 0.898 ± 0.026 | 0.7957 ± 0.0075 | 0.633 ± 0.035 | 0.506 ± 0.016 | 0.339 ± 0.02
O=C(Cc1ccc(-c2ccc(OCCN3CCOCC3)cc2)cn1)NCc1ccccc1 [KX2-391] | 1.01 ± 0.037 | 1.07 ± 0.021 | 1.06 ± 0.04 | 1.06 ± 0.013 | 1.037 ± 0.0061 | 0.661 ± 0.02 | 0.299 ± 0.019 | 0.269 ± 0.017 | 0.265 ± 0.023 | 0.2804 ± 0.00064 | 0.278 ± 0.0036
